Results on 1 molecule are retold here after patent publication US20260325655A1, “DECREASING THE INTRINSICALLY DISORDERED PROTEIN ALPHA-SYNUCLEIN’S LEVELS BY TARGETING ITS STRUCTURED MRNA WITH A RIBONUCLEASE TARGETING CHIMERA” (University of Florida Research Foundation, Incorporated, priority 2023, published 2026).

Holding throughout (assay type): cell-based, human
One assay has as its system SH-SY5Y cells. Nature of the assay: cytoprotection of SH-SY5Y cells against α-synuclein pre-formed fibrils (PFF), LDH assay. The conditions noted are these: Syn-RIBOTAC vs Synucleozid 2.0. How it is done: Lactate Dehydrogenase (LDH) assay. SH-SY5Y cells in 96-well plates (~60% confluency) were pre-treated with compounds in growth medium for 24 h, followed by addition of 50 ng/μL of human α-synuclein pre-formed fibrils (PFFs, SPR-322 from Eagle Biosciences). The cells were then incubated for an additional 48 h. Cell viability was measured using LDH (Lactate Dehydrogenase) Cytotoxicity Detection Kit (MK401; Takara) according to the manufacturer's instructions.

Another assay has as its system HHIPL1. The experiment in a line: HHIPL1 protein in SH-SY5Y cells by Western blot. The conditions noted are these: 2 μM, 48 h. The protocol:
(§1) Western blotting. After 48 h, cells were gently washed with ice-cold 1× DPBS, and total protein was extracted with Mammalian Protein Extraction Reagent (M-PER, Thermo Scientific) per the manufacturer's protocol. After quantifying protein concentration by using BCA Protein Assay Kit (Pierce Biotechnology), ~30 μg of total protein for each sample was separated using a 10% SDS-polyacrylamide gel and transferred onto a PVDF membrane. The membrane was fixed with 0.4% paraformaldehyde (pH=7.0) for 30 min at room temperature^9 and then blocked with 5% (w/v) non-fat dry milk in 1× TBST (1× TBS containing 0.1% Tween-20) for 1 h at room temperature. […] After washing 10 min each with 1× TBST three times, immunocomplex signals of each protein were detected by using a SuperSignal West Pico Chemiluminescent Substrate (Pierce Biotechnology) according to the manufacturer's protocol. The memebrane was then stripped by using 1× Stripping Buffer (200 mM glycine, pH 2.2, 4 mM SDS, 1% (v/v) Tween 20) at room temperature for 15 min, followed by blocking with 5% (w/v) non-fat dry milk at room temperature for 1 h. β-actin was used to normalize the levels of all proteins, measured by incubating with a primary antibody for β-actin (1:5000, 3700S from Cell Signaling Technology) at 4° C. overnight. […]
A general note: A western blot detects proteins with antibodies after separation by electrophoresis.

In another assay the test system is MYO15B. The experiment in a line: MYO15B protein in SH-SY5Y cells by Western blot. The conditions noted are these: 2 μM, 48 h. How it is done: as §1
Another assay has as its system APP mRNA. Nature of the assay: APP mRNA in SH-SY5Y cells by RT-qPCR. The protocol: RNA extraction and reverse transcription-quantitative polymerase chain reaction (RT-qPCR). Total RNA was extracted from cells using a Quick-RNA MiniPrep Kit (Zymo Research) per the manufacturer's protocol including DNase treatment. For each sample, 200 ng of RNA was reverse transcribed into cDNA by using a qScript cDNA Synthesis Kit (QuantaBio) according to the manufacturer's instructions. To assess the relative mRNA levels, RT-qPCR was performed in triplicate using SYBR Green PCR mater mix (Applied Biosystems) with a Quant Studio 5 Real-Time PCR system. The relative levels of mRNA were calculated by using the ΔΔCt method as previously described.^8

As for `CCOC(=O)C1=C(Nc2ccccc2)S/C(=C\c2ccc(OCCOCCOCCOCCNC(=O)CCCOc3ccc(-n4c(SCC(=O)Nc5ccc6cn[nH]c6c5)nnc4-c4ccncc4)cc3)c(O)c2)C1=O` [Syn-RiboTAC], in the assay on SH-SY5Y cells, the “cytoprotective effect relative to the binding small molecule” value was 5 -fold. Besides, the “reduction of HHIPL1 protein level” value in the assay with HHIPL1 is recorded as ~ 20%. Moreover, the “reduction of MYO15B protein level” value in the assay with MYO15B was ~ 20%. Further, in the assay with APP mRNA, the “effect on APP mRNA level” value is reported as “None of the three transcripts was affected”.
